Test results reported in patent US7030085B2, “Thiopeptide compounds” (Astellas Pharma INC, priority 2001, dated 2006).
Converted amounts (≈) assume the structure as drawn.

What was measured:
[1] = system: Enterococcus faecalis IID682; experiment: MIC determination, standard method of the Chemotherapy Society of Japan; format: cell-based
Excerpt: (§1) The minimal inhibitory concentration (MIC) of the compounds of the invention obtained in Example 1, QN3323A, QN3323-B, QN3323-Y1, thiocillin I, thiocillin II and micrococcin P2 against Staphylococcus aureus FDA209P (S. aureus), Staphylococcus epidermidis IID866 (S. epidezmidis), Enterococcus faecalis IID682 (E. Faecalis) and Enterococcus faecium CAY09—1 (E. faecium), as well as against drug-resistant bacteria, Staphylococcus aureus CAY32001 (MRSA) (S. aureus (MRSA)) and Enterococcus faecium CAY09—2 (VRE) (E. faecium (VRE)) was measured according to the standard method of the Chemotherapy Society of Japan (CHEMOTHERAPY, 1981, 29(1):76, revised minimal inhibitory concentration (MIC) determination method). The cells of S. aureus (MRSA) were incubated at 32° C.

[2] = system: Enterococcus faecium CAY09—1; experiment: as above; format: cell-based
Excerpt: as §1

[3] = system: Enterococcus faecium CAY09—2 (VRE); experiment: as above; format: cell-based
Excerpt: as §1

[4] = system: Staphylococcus aureus CAY32001 (MRSA); experiment: as above; format: cell-based
Excerpt: as §1

[5] = system: Staphylococcus aureus FDA209P; experiment: as above; format: cell-based
Excerpt: as §1

[6] = system: Staphylococcus epidermidis IID866; experiment: as above; format: cell-based
Excerpt: as §1

[7] = system: Staphylococcus aureus Smith; experiment: Remedial effect for infected mouse model; format: in vivo; settings: male ICR(CD-1) mice infected intraabdominally with S. aureus Smith; compound subcutaneous two hours after infection; observed 4 to 7 days after treatment; probit method
Method: Remedial Effect for Infected Mouse Model
The compounds of the invention, QN3323-A, QN3323-B, thiocillin I and thiocillin II were tested using an infected mouse model to determine the effectivness thereof. Concretely, cells of Staphylococcus aureus Smith cultivated for 16 hours at 37° C. were suspended in 3% butamutin (by Tokyo Kasei), and the resulting cell suspension was intraabdominally infected into 4-week old male ICR(CD-1) mice (from Charles River of Japan, SPF) (about 3×10^6 CFU/mouse). Two hours after the infection, the compound of the invention dissolved in a solvent (10% DMSO, 10% HCO-60 (by Nikko Chemicals), 80% physiological saline), was subcutaneously administered to each mouse. On 4 to 7 days after the treatment, the mice were observed, and their ED50 value was calculated according to probit method.

[8] = S. aureus CAY32001 (MRSA), incubated at 32° C.

## C/C=C(\NC(=O)c1csc(-c2csc(-c3ccc4c(n3)-c3csc(n3)C(C(C)O)NC(=O)c3csc(n3)C(C(C)(C)O)NC(=O)c3csc(n3)/C(=C\C)NC(=O)C(C(C)O)NC(=O)c3csc-4n3)n2)n1)C(=O)NCC(C)O (centres unmarked) [QN3323-Y1]
[1]
  MIC: 0.5 mg/L (≈ 0.431 µM)
[2]
  MIC: 0.5 mg/L (≈ 0.431 µM)
[3]; Enterococcus faecium, VRE
  MIC: 0.25 mg/L (≈ 0.215 µM)
[4]; Staphylococcus aureus, MRSA
  MIC: 2 mg/L (≈ 1.72 µM)
[5]
  MIC: 0.25 mg/L (≈ 0.215 µM)
[6]
  MIC: 0.25 mg/L (≈ 0.215 µM)

## C/C=C(\NC(=O)c1csc(-c2csc(-c3ccc4c(n3)-c3csc(n3)[C@H]([C@@H](C)O)NC(=O)c3csc(n3)[C@H](C(C)(C)O)NC(=O)c3csc(n3)/C(=C/C)NC(=O)[C@H]([C@@H](C)O)NC(=O)c3csc-4n3)n2)n1)C(=O)NC[C@@H](C)O [Thiocillin I, thiocillin I]
[3]; E. faecium CAY09—2 (VRE)
  MIC: 0.78 mg/L (≈ 0.672 µM)
[4]; [8]
  MIC: 0.78 mg/L (≈ 0.672 µM)
[7]
  ED5O: 1.4 mg/kg

## C/C=C(\NC(=O)c1csc(-c2csc(-c3ccc4c(n3)-c3csc(n3)[C@H]([C@@H](C)O)NC(=O)c3csc(n3)[C@H](C(C)C)NC(=O)c3csc(n3)/C(=C/C)NC(=O)[C@H]([C@@H](C)O)NC(=O)c3csc-4n3)n2)n1)C(=O)NCC(C)=O [Micrococcin P2, micrococcin P2]
[3]; E. faecium CAY09—2 (VRE)
  MIC: 0.2 mg/L (≈ 0.175 µM)
[4]; [8]
  MIC: 0.78 mg/L (≈ 0.683 µM)

## C/C=C(/NC(=O)c1csc(-c2csc(-c3ccc4c(n3)-c3csc(n3)C(C(C)OC)NC(=O)c3csc(n3)C(C(C)(C)O)NC(=O)c3csc(n3)/C(=C\C)NC(=O)C(C(C)O)NC(=O)c3csc-4n3)n2)n1)C(=O)NCC(C)O (centres unmarked) [Thiocillin II, thiocillin II]
[3]; E. faecium CAY09—2 (VRE)
  MIC: 0.05 mg/L (≈ 0.0426 µM)
[4]; [8]
  MIC: 0.10 mg/L (≈ 0.0851 µM)
[7]
  ED5O: 2.2 mg/kg
